Assays:
[1] = biological target: T1, HO-1 (Rattus norvegicus, UniProt P06762); test: HO-1 enzymatic activity, rat spleen microsomal fraction (bilirubin formation); format: biochemical; conditions: for IC50: rat spleen microsomal fraction, mean of triplicate ± SD; for SI (HO-2/HO-1): ratio of HO-2 and HO-1 IC50
T1 construct: selected to use the most native (i.e., closest to in vivo) forms of HO-1 and HO-2; from tissue; host or cells: rat spleen (male Sprague-Dawley), microsomal fraction
T1 sequence (P06762 1-289): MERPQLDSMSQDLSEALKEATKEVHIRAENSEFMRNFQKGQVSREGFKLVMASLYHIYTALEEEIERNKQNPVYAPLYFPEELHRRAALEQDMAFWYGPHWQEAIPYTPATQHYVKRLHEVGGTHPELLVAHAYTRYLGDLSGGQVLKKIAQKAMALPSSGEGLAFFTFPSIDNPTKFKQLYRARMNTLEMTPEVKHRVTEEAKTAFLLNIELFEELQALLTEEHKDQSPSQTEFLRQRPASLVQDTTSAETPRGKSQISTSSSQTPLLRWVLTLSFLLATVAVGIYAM
Protocol: (§1) HO-1 and HO-2 were obtained, respectively, from the rat spleen and brain as the microsomal fraction prepared by differential centrifugation; the dominance of HO-1 protein in the rat spleen and HO-2 in the rat brain has been well documented.[24] These particular microsomal preparations were selected to use the most native (i.e., closest to in vivo) forms of HO-1 and HO-2. Spleen and brain (Sprague-Dawley rats) microsomal fractions were prepared according to the procedure outlined by Ryter et al.[2] The experiments reported in the present paper complied with the current Italian law and met the guidelines of the Institutional Animal Care and Use Committee of the Ministry of Health (Directorate General for Animal Health and Veterinary Medicines, Italy) “Dosing of enzymatic activities in rat microsomes” (2018–2022), project code 02769.N.VLY. The experiments were performed in male Sprague-Dawley albino rats (150 g body weight and age 45 d). They had free access to water and were kept at room temperature with a natural photoperiod (12 h light–12 h dark cycle). For measuring HO-1 and HO-2 activities, each rat was sacrificed and their spleen and brain were excised and weighed. A homogenate (15%, w/v) of spleens and brains pooled from four rats was prepared in ice-cold HO-homogenizing buffer (50 mM Tris buffer, pH 7.4, containing 0.25 M sucrose) using a Potter–Elvehjem homogenizing system with a Teflon pestle. The microsomal fraction of rat spleen and brain homogenate was obtained by centrifugation at 10 000g for 20 min at 4 °C, followed by centrifugation of the supernatant at 100 000g for 60 min at 4 °C. The 100 000g pellet (microsomes) was resuspended in 100 mM of potassium phosphate buffer, pH 7.8, containing 2 mM MgCl2 with a Potter–Elvehjem homogenizing system. The rat spleen and brain microsomal fractions were divided into equal aliquots, placed into microcentrifuge tubes, and stored at −80 °C for up to 2 months.
(§2) Liver cytosol has been used as a source of biliverdin reductase. Rat liver was perfused through the hepatic portal vein with cold 0.9% NaCl; then, it was cut and flushed with 2 × 20 mL of ice-cold PBS to remove all of the blood. Liver tissue was homogenized in 3 volumes of a solution containing 1.15% KCl w/v and Tris buffer 20 mM, pH 7.8 on ice. Homogenates were centrifuged at 10 000g for 20 min at 4 °C. The supernatant was decanted and centrifuged at 100 000g for 1 h at 4 °C to sediment the microsomes. The 100 000g supernatant was saved and then stored in small amounts at −80 °C after its protein concentration was measured.
(§3) The HO-1 and HO-2 activities were determined by measuring the bilirubin formation using the difference in absorbance at 464–530 nm, as described by Ryter et al.[2] Reaction mixtures (500 μL) consisted of 20 mM of Tris–HCl, pH 7.4, (1 mg/mL) microsomal extract, 0.5–2 mg/mL of biliverdin reductase, 1 mM of NADPH, 2 mM of glucose 6-phosphate (G6P), 1 U of G6P dehydrogenase, 25 μM of hemin, and 10 μL of DMSO (or the same volume of DMSO solution of test compounds to a final concentration of 100, 10, and 1 μM). Incubations were carried out for 60 min at 37 °C in a circulating water bath in the dark. Reactions were stopped by adding the same volume of chloroform. After recovering the chloroform phase, the amount of bilirubin formed was measured with a double-beam spectrophotometer as OD464–530 nm (extinction coefficient, 40 mM/cm^–1 for bilirubin). One unit of the enzyme was defined as the amount of enzyme catalyzing the formation of 1 nmol of bilirubin/mg protein/h.

[2] = biological target: T2, HO-2 (Rattus norvegicus, UniProt P23711); test: HO-2 enzymatic activity, rat brain microsomal fraction (bilirubin formation); format: biochemical; conditions: mean of triplicate ± SD
T2 construct: selected to use the most native (i.e., closest to in vivo) forms of HO-1 and HO-2; from tissue; host or cells: rat brain (male Sprague-Dawley), microsomal fraction
T2 sequence (P23711 1-315): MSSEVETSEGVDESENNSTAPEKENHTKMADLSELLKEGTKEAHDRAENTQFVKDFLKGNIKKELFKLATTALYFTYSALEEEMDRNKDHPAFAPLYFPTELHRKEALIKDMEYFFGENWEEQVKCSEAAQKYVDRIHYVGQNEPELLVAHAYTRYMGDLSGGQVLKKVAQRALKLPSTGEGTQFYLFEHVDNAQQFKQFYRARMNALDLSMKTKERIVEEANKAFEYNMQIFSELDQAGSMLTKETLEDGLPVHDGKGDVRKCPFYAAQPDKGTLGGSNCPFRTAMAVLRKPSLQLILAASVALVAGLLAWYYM
Protocol: as §1, §2, §3

[3] = system: U87MG cells; test: MTT cell viability assay, U87MG; format: cell-based, human; conditions: 48 h
Protocol: (§4) Experiments were performed on human GBM cell lines U87MG (ATCCC number #HTB-14) and A172 (ATCCC #CRL-1620) on DU145 (ATCC HTB-81) and human lung adenocarcinoma A549 (ATCC CCL-185-LUC2). All cell lines were obtained from the American Type Culture Collection (ATCC, Rockville, MD). Cells were grown in Dulbecco’s modified Eagle’s medium (DMEM) supplemented with 10% of heat-inactivated fetal bovine serum (FBS), 100 U/mL of penicillin, and 100 μg/mL of streptomycin (Sigma-Aldrich, Steinheim, Germany). Cells were incubated at 37 °C in a humidified atmosphere with 5% CO2.
(§5) The effect of selected compounds 7i and 7l–p on cell viability was assessed by performing an MTT assay. Cells were seeded into 96-well plates at a density of 7 × 10^3 cells/well in 100 μL of culture medium. After 24 h, cells were treated with selected compounds at three different concentrations (1 μM, 10 μM, and 50 μM) for 48 h. Following treatments, 0.5 mg/mL of 3-[4,5-dimethylthiazol-2-yl]-2,5-diphenyltetrazolium bromide (MTT) (Sigma-Aldrich) was added to each well and incubated for 4 h at 37 °C. Finally, dimethyl-sulfoxide (DMSO) was used to dissolve formazan salts, and absorbance was measured at 570 nm in a microplate reader (Biotek Synergy-HT). Eight replicate wells were used for each group.

[4] = system: A172 cells; test: MTT cell viability assay, A172; format: cell-based, human; conditions: 48 h
Protocol: as §4, §5

[5] = all tested concentrations (1, 10, 50 μM)
[6] = at both concentrations 1 and 10 μM

Row | IC50 [1] | SI (HO-2/HO-1) [1] | IC50 [2] | fold more selective for the inducible isoform (HO-1 over HO-2) [1] | melting point | Compound | HO-1 vs HO-2 selectivity (in words) [1] | cell viability reduction ([3]; at all of the tested concentrations (1, 10, 50 μM)) | cell viability reduction (in words) [4, 5] | cell viability reduction [3, 6] | cell viability reduction (in words) ([4]; 10 μM) | cell viability reduction (in words) ([4]; 50 μM)
1 | 950 ± 90 nM | 48.3 | 45.9 ± 1.67 µM | about 48 fold | 69 to 71 °C | CN(C(=O)Cn1ccnc1)C(c1ccccc1)c1ccc(I)cc1 (stereo not drawn) [7n, 2-(1H-Imidazol-1-yl)-N-((4-iodophenyl)(phenyl)methyl)-N-methylacetamide] |  |  |  | more than 30% | milder activity | only at 50 μM
2 | 1200 ± 110 nM | 9.3 | 11.2 ± 0.18 µM | 9 fold | 119 to 121 °C | CN(C(=O)Cn1ccnc1)C(c1ccccc1)c1ccc(OCc2ccccc2)cc1 (stereo not drawn) [7o, N-((4-(Benzyloxy)phenyl)(phenyl)methyl)-2-(1H-imidazol-1-yl)-N-methylacetamide] |  |  | remarkable reduction of cell viability | around 20% |  | 

Row | Compound | IC50 [1] | SI (HO-2/HO-1) [1] | IC50 [2] | fold more selective for the inducible isoform (HO-1 over HO-2) [1] | melting point | HO-1 vs HO-2 selectivity (in words) [1] | cell viability reduction ([3]; at all of the tested concentrations (1, 10, 50 μM)) | cell viability reduction (in words) [4, 5] | cell viability reduction [3, 6] | cell viability reduction (in words) ([4]; 10 μM) | cell viability reduction (in words) ([4]; 50 μM)
3 | CN(C(=O)Cn1ccnc1)C(c1ccccc1)c1ccc(Cl)cc1 (stereo not drawn) [7l, N-((4-Chlorophenyl)(phenyl)methyl)-2-(1H-imidazol-1-yl)-N-methylacetamide] | 950 ± 40 nM | 1.3 | 1.2 ± 0.07 µM |  |  | superimposable HO-1 and HO-2 IC50 values | more than 60% | remarkable reduction of cell viability |  |  | 

— PMC8474116, “Discovery of Novel Acetamide-Based Heme Oxygenase-1 Inhibitors with Potent In Vitro Antiproliferative Activity” (Journal of Medicinal Chemistry, 2021)
